Measured values published in ChEMBL document CHEMBL1201862, “PubChem BioAssay data set” (2004).
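Where inhibition never reached the appropriate level, the endpoint shown equals the highest concentration tested. Otherwise, values were interpolated linearly from a five-concentration, 48-hour dose response in 96-well plates. Abbreviation: GI50, concentration required for 50% inhibition of growth.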 Activity calls are given as the source filed them. Cut-off read from the data, not from the text of the source: active = GI50 up to about 1.1 µM and inactive = higher.

Key:
Experiment in all cases: growth of human tumour cells (NCI), 48 h
A498 = tested on: A498
A549 = tested on: A549
CAKI-1 = tested on: CAKI-1
COLO 205 = tested on: COLO 205
DU-145 = tested on: DU-145
EKVX = tested on: EKVX
HCC 2998 = tested on: HCC 2998
HT-29 = tested on: HT-29
LOX IMVI = tested on: LOX IMVI
MOLT-4 = tested on: MOLT-4
Malme-3M = tested on: Malme-3M
NCI-H226 = tested on: NCI-H226
NCI-H23 = tested on: NCI-H23
OVCAR-4 = tested on: OVCAR-4
RXF 393 = tested on: RXF 393
SF-295 = tested on: SF-295
SK-MEL-28 = tested on: SK-MEL-28
SNB-19 = tested on: SNB-19
SR = tested on: SR
HL-60 = tested on: HL-60

Row | SMILES | GI50 (A498) | GI50 (A549) | GI50 (CAKI-1) | GI50 (COLO 205) | GI50 (DU-145) | GI50 (EKVX) | GI50 (HCC 2998) | GI50 (HT-29) | GI50 (LOX IMVI) | GI50 (MOLT-4) | GI50 (Malme-3M) | GI50 (NCI-H226) | GI50 (NCI-H23) | GI50 (OVCAR-4) | GI50 (RXF 393) | GI50 (SF-295) | GI50 (SK-MEL-28) | GI50 (SNB-19) | GI50 (SR) | GI50 (HL-60)
1 | COc1cc2c(cc1OCc1ccccc1)NC(=S)[C@@H]1CCCN1C2=S | > 100 µM (inactive) | 73.8 µM (inactive) | > 100 µM (inactive) | > 100 µM (inactive) | > 100 µM (inactive) | > 100 µM (inactive) | > 100 µM (inactive) | 18.2 µM (inactive) | 55.5 µM (inactive) | > 100 µM (inactive) | 71.6 µM (inactive) | 93.5 µM (inactive) | > 100 µM (inactive) | 4.09 µM (inactive) | > 100 µM (inactive) | 37.5 µM (inactive) | > 100 µM (inactive) | > 100 µM (inactive) | 48.5 µM (inactive) | –
2 | O=C(O)c1ccccc1/C=C1\Cc2ccc3c(c2C1=O)CCCC3 | 30.8 µM (inactive) | 42.7 µM (inactive) | – | 34.4 µM (inactive) | 41.4 µM (inactive) | 43.3 µM (inactive) | 31.3 µM (inactive) | 50.6 µM (inactive) | 40 µM (inactive) | 25.2 µM (inactive) | 41.8 µM (inactive) | 28.6 µM (inactive) | 26.1 µM (inactive) | 41.6 µM (inactive) | 30.5 µM (inactive) | 31.6 µM (inactive) | 39.2 µM (inactive) | 39.4 µM (inactive) | 26.8 µM (inactive) | 26.4 µM (inactive)
3 | O=C(NCCN1CCCCC1)c1ccc(Br)cc1 | 42.8 µM (inactive) | > 100 µM (inactive) | > 100 µM (inactive) | > 100 µM (inactive) | > 100 µM (inactive) | > 100 µM (inactive) | > 100 µM (inactive) | > 100 µM (inactive) | > 100 µM (inactive) | > 100 µM (inactive) | > 100 µM (inactive) | – | > 100 µM (inactive) | > 100 µM (inactive) | > 100 µM (inactive) | > 100 µM (inactive) | > 100 µM (inactive) | > 100 µM (inactive) | > 100 µM (inactive) | 2.81 µM (inactive)
4 | CN(C)c1ccc(/C=C/C(=O)N[C@@H]2C(=O)N3[C@@H]2SC(C)(C)[C@@H]3C(=O)O)cc1 | > 100 µM (inactive) | > 100 µM (inactive) | > 100 µM (inactive) | > 100 µM (inactive) | > 100 µM (inactive) | > 100 µM (inactive) | > 100 µM (inactive) | > 100 µM (inactive) | > 100 µM (inactive) | > 100 µM (inactive) | – | > 100 µM (inactive) | > 100 µM (inactive) | > 100 µM (inactive) | > 100 µM (inactive) | > 100 µM (inactive) | > 100 µM (inactive) | > 100 µM (inactive) | > 100 µM (inactive) | > 100 µM (inactive)
5 | CCN(CCCl)CCCCNc1c2ccccc2nc2ccc(OC)cc12 | 0.379 µM (active) | 0.177 µM (active) | 0.394 µM (active) | 0.258 µM (active) | 0.336 µM (active) | 0.723 µM (active) | – | 0.13 µM (active) | 0.149 µM (active) | < 0.01 µM (active) | 0.957 µM (active) | 0.102 µM (active) | 0.276 µM (active) | 0.7 µM (active) | 0.238 µM (active) | 0.259 µM (active) | 1.58 µM (inactive) | 0.918 µM (active) | < 0.01 µM (active) | 0.0929 µM (active)
6 | NC1C2C(CC(=O)O)OCC=C3CN4CCC1(C(=O)C(=O)O)C4CC32 (configuration not stated) | > 100 µM (inactive) | > 100 µM (inactive) | > 100 µM (inactive) | > 100 µM (inactive) | > 100 µM (inactive) | > 100 µM (inactive) | – | > 100 µM (inactive) | > 100 µM (inactive) | > 100 µM (inactive) | > 100 µM (inactive) | > 100 µM (inactive) | > 100 µM (inactive) | > 100 µM (inactive) | > 100 µM (inactive) | > 100 µM (inactive) | > 100 µM (inactive) | > 100 µM (inactive) | > 100 µM (inactive) | > 100 µM (inactive)
7 | COc1cc(OC)c(OC)cc1/C=C1\C=Cc2ccccc21 | > 10 µM (inactive) | 26.5 µM (inactive) | – | 7.96 µM (inactive) | 28.8 µM (inactive) | 19.2 µM (inactive) | 13.5 µM (inactive) | 11.7 µM (inactive) | 13 µM (inactive) | 6.31 µM (inactive) | 23.1 µM (inactive) | 26.9 µM (inactive) | 18.8 µM (inactive) | – | 11.4 µM (inactive) | 18.5 µM (inactive) | 15.7 µM (inactive) | > 10 µM (inactive) | 5.04 µM (inactive) | 5.82 µM (inactive)
8 | CCOC1CC(=O)c2c(Br)sc(Br)c21 (configuration not stated) | 32.4 µM (inactive) | 29.2 µM (inactive) | 17.3 µM (inactive) | 19.7 µM (inactive) | 18 µM (inactive) | 21.7 µM (inactive) | 21.9 µM (inactive) | 21.3 µM (inactive) | 19.5 µM (inactive) | 14.3 µM (inactive) | 23.1 µM (inactive) | – | 17.9 µM (inactive) | – | 18.5 µM (inactive) | 27.9 µM (inactive) | 19.6 µM (inactive) | 23.8 µM (inactive) | 21.7 µM (inactive) | 20.4 µM (inactive)
9 | Oc1ccc(Cl)cc1C1=NC(NCNC2=NC(c3ccccc3)CC(c3cc(Cl)ccc3O)=N2)=NC(c2ccccc2)C1 (configuration not stated) | > 100 µM (inactive) | > 100 µM (inactive) | 94.2 µM (inactive) | > 100 µM (inactive) | 44.2 µM (inactive) | > 100 µM (inactive) | > 100 µM (inactive) | 70.8 µM (inactive) | > 100 µM (inactive) | – | – | > 100 µM (inactive) | > 100 µM (inactive) | 64.1 µM (inactive) | 37.7 µM (inactive) | 79.1 µM (inactive) | > 100 µM (inactive) | > 100 µM (inactive) | 24.9 µM (inactive) | > 100 µM (inactive)
10 | CN(CCC(=O)O)S(=O)(=O)c1ccccc1 | > 100 µM (inactive) | > 100 µM (inactive) | > 100 µM (inactive) | > 100 µM (inactive) | > 100 µM (inactive) | > 100 µM (inactive) | – | > 100 µM (inactive) | > 100 µM (inactive) | > 100 µM (inactive) | > 100 µM (inactive) | > 100 µM (inactive) | > 100 µM (inactive) | > 100 µM (inactive) | > 100 µM (inactive) | > 100 µM (inactive) | > 100 µM (inactive) | > 100 µM (inactive) | > 100 µM (inactive) | > 100 µM (inactive)
11 | Cn1c2ccccc2c2c3c(c4c5ccccc5n(C5OC(CO)C(O)C(O)C5O)c4c21)C(=O)OC3=O (configuration not stated) | > 100 µM (inactive) | > 100 µM (inactive) | > 100 µM (inactive) | > 100 µM (inactive) | > 100 µM (inactive) | > 100 µM (inactive) | > 100 µM (inactive) | > 100 µM (inactive) | > 100 µM (inactive) | > 100 µM (inactive) | > 100 µM (inactive) | > 100 µM (inactive) | > 100 µM (inactive) | > 100 µM (inactive) | > 100 µM (inactive) | > 100 µM (inactive) | > 100 µM (inactive) | > 100 µM (inactive) | > 100 µM (inactive) | –
12 | O=c1c2ccccc2[nH]n1Cc1ccccc1 | > 100 µM (inactive) | > 100 µM (inactive) | > 100 µM (inactive) | > 100 µM (inactive) | > 100 µM (inactive) | > 100 µM (inactive) | > 100 µM (inactive) | > 100 µM (inactive) | > 100 µM (inactive) | > 100 µM (inactive) | – | > 100 µM (inactive) | > 100 µM (inactive) | > 100 µM (inactive) | > 100 µM (inactive) | > 100 µM (inactive) | > 100 µM (inactive) | > 100 µM (inactive) | > 100 µM (inactive) | > 100 µM (inactive)
13 | Nc1ccnc2c1ncn2[C@H]1C[C@H](O)[C@@H](CO)O1 | > 100 µM (inactive) | > 100 µM (inactive) | > 100 µM (inactive) | > 100 µM (inactive) | > 100 µM (inactive) | > 100 µM (inactive) | > 100 µM (inactive) | > 100 µM (inactive) | > 100 µM (inactive) | > 100 µM (inactive) | – | > 100 µM (inactive) | > 100 µM (inactive) | > 100 µM (inactive) | > 100 µM (inactive) | > 100 µM (inactive) | > 100 µM (inactive) | > 100 µM (inactive) | > 100 µM (inactive) | > 100 µM (inactive)
14 | CCCSc1cc(Cl)c(C)cc1S(=O)(=O)n1ccnc1O | > 100 µM (inactive) | > 100 µM (inactive) | > 100 µM (inactive) | > 100 µM (inactive) | > 100 µM (inactive) | > 100 µM (inactive) | > 100 µM (inactive) | > 100 µM (inactive) | > 100 µM (inactive) | > 100 µM (inactive) | > 100 µM (inactive) | > 100 µM (inactive) | > 100 µM (inactive) | > 100 µM (inactive) | > 100 µM (inactive) | > 100 µM (inactive) | > 100 µM (inactive) | > 100 µM (inactive) | > 100 µM (inactive) | –
15 | O=C(OCc1ccccc1)N1CCNCCNCC1 | > 100 µM (inactive) | > 100 µM (inactive) | > 100 µM (inactive) | > 100 µM (inactive) | > 100 µM (inactive) | > 100 µM (inactive) | > 100 µM (inactive) | > 100 µM (inactive) | > 100 µM (inactive) | > 100 µM (inactive) | – | > 100 µM (inactive) | > 100 µM (inactive) | > 100 µM (inactive) | > 100 µM (inactive) | > 100 µM (inactive) | > 100 µM (inactive) | > 100 µM (inactive) | > 100 µM (inactive) | > 100 µM (inactive)
